Measurements taken from US20050227956A1, “Control of mold growth on wood” (priority 2004, published 2005).

Assays:
Trichoderma virens = experiment: Six-well plate screening test; assay type: cell-based; details: for Minimum Inhibitory Concentrations (MIC): 10 days of incubation at room temperature
[1] = system: Cladosporium cladosporioides; experiment: Six-well plate screening test; assay type: cell-based; details: for Minimum Inhibitory Concentrations (MIC): 10 days of incubation at room temperature
Penicillium funiculosum = experiment: Six-well plate screening test; assay type: cell-based; details: for Minimum Inhibitory Concentrations (MIC): 10 days of incubation at room temperature
Alternaria alternata = experiment: Six-well plate screening test; assay type: cell-based; details: for Minimum Inhibitory Concentrations (MIC): 10 days of incubation at room temperature
[2] = system: Alternaria alternata, Aspergillus niger, Aureobasidium pullulans, Cladosporium cladosporioides, Cephalosporium sp. (DR 423); experiment: Wood panel test method; set-up: species or system mixed spore suspension of mold; details: compositions with the single moldicide at 40 mg/kg
Method: The wood panel specimens were approximately 5×3 inches (12.7×7.6 cm)×board thickness. There were seven replicates per treatment. The wood panels were conditioned at approximately 80° F. (27° C.) and 80% relative humidity for one week prior to mold inoculation. The wood panels were supported on a screen above a layer of water in a sealed plastic box for 8 weeks at approximately 80° F. (27° C.) and 100% relative humidity.
Mold and stain fungi used for inoculum were Alternaria alternata, Aspergillus niger, Aureobasidium pullulans, Cladosporium cladosporioides, and an additional mold isolated from ACQ-treated wood from Georgia Pacific (October 2002, tentatively identified as Cephalosporium sp. (DR 423).
Each inoculum was produced from fully colonized, 2% malt agar in 100 mm petri plates, by washing spores with 10 mL distilled water plus 10 mL rinse (20 mL inoculum were produced per plate). The panels were inoculated by spraying with mixed spore suspension of mold on the surface to be evaluated; approx. 2-3 mL of inoculum were applied per panel. The panel surfaces were lightly misted with distilled water once per week during the evaluation test to maintain optimum conditions for mold colonization in the chambers. Two evaluation ratings were made weekly for 8 weeks; using a scale of 0 (no coverage by mold) to 10 (total coverage by mold). […]

Aspergillus niger = experiment: Six-well plate screening test; assay type: cell-based; details: for Minimum Inhibitory Concentrations (MIC): 10 days of incubation at room temperature
Mold from ACQ wood = experiment: Six-well plate screening test; assay type: cell-based, cephalosporium; details: 10 days of incubation at room temperature
Aureobasidium pullulans = experiment: Six-well plate screening test; assay type: cell-based; details: for Minimum Inhibitory Concentrations (MIC): 10 days of incubation at room temperature
Stachybotrus charatrum = experiment: Six-well plate screening test; assay type: cell-based
[3] = single moldicide or ACQ-C alone, incubation period 14 days
[4] = single moldicide, incubation period 21 days

Row | SMILES | Minimum Inhibitory Concentrations (MIC) (Trichoderma virens) [mg/kg] | MIC (Trichoderma virens; [3]) [mg/kg] | Minimum Inhibitory Concentrations (MIC) [1] [mg/kg] | MIC [1, 3] [mg/kg] | Minimum Inhibitory Concentrations (MIC) (Penicillium funiculosum) [mg/kg] | MIC (Penicillium funiculosum; [3]) [mg/kg] | Minimum Inhibitory Concentrations (MIC) (Alternaria alternata) [mg/kg] | MIC (Alternaria alternata; [3]) [mg/kg] | potential to control mold growth [2] | Minimum Inhibitory Concentrations (MIC) (Aspergillus niger) [mg/kg] | MIC (Aspergillus niger; [3]) [mg/kg] | Minimum Inhibitory Concentrations (MIC) (Mold from ACQ wood) [mg/kg] | Minimum Inhibitory Concentrations (MIC) (Aureobasidium pullulans) [mg/kg] | MIC (Aureobasidium pullulans; [3]) [mg/kg] | other results
1 | CC(C)(C)C(O)(CCc1ccc(Cl)cc1)Cn1cncn1 (racemic) [Tebuconazole, (RS)-1-p-chlorophenyl4,4-dimethyl-3-(1H-1,2,4-triazol-1-ylmethyl)pentan-3-ol] | >10 | >10 | 10 | 10 | >10 | >10 | 100 | 100 | good potential to control mold growth | 10 | 10 | >100 | 10 | 10 | –
2 | CCCC1COC(Cn2cncn2)(c2ccc(Cl)cc2Cl)O1 (stereo not drawn) [Propiconazole, cis-trans-1-[2-(2,4-dichlorophenyl)-4-propyl-1,3-dioxolan-2-ylmethyl]-1H-1,2,4-triazole] | 10 | 6.2 | 1 | 3.1 | 100 | >100 | >100 | 100 | good potential to control mold growth | 10 | 25 | 10 | 1 | 0.8 | MIC (Trichoderma virens; [4]): 12.5 mg/kg; MIC (Stachybotrus charatrum; [3]): 25 mg/kg; MIC (Stachybotrus charatrum; [4]): 25 mg/kg; MIC [1, 4]: 3.1 mg/kg; MIC (Penicillium funiculosum; [4]): >100 mg/kg; MIC (Alternaria alternata; [4]): 100 mg/kg; MIC (Aspergillus niger; [4]): 25 mg/kg; MIC (Aureobasidium pullulans; [4]): 0.8 mg/kg
